From patent US12576087B2, “Aryloxypiperidine pyrazole compounds as indoleamine 2,3-dioxygenase inhibitors” (Merck Sharp & Dohme LLC, priority 2018, dated 2026) come the findings set out here.

Each structure is given as a SMILES string.

Broadly, the IC50 is the midpoint of a concentration-inhibition curve.

In one assay the target is IDO1 (Homo sapiens, UniProt P14902). Nature of the assay: IDO1 Human Whole Blood Assay. In kind it is cell-based. To be noted: WBLD taken as whole blood; read-out: WBLD IC50. As for the experimental part: Compounds to be tested were serially diluted in ten 3-fold steps in DMSO starting from 10 mM. 3 μL of compound dilutions or DMSO alone were then dispensed from the dilution plate into a polypropylene 96-well assay plate containing 97 μL of RPMI medium using an Echo 555 acoustic liquid handler (Labcyte). LPS and IFNγ was prepared in RPMI medium to a 10× of final conc. (1000 ng/mL), final concentration is 100 ng/mL.
IDO1, sequence (P14902 whole entry): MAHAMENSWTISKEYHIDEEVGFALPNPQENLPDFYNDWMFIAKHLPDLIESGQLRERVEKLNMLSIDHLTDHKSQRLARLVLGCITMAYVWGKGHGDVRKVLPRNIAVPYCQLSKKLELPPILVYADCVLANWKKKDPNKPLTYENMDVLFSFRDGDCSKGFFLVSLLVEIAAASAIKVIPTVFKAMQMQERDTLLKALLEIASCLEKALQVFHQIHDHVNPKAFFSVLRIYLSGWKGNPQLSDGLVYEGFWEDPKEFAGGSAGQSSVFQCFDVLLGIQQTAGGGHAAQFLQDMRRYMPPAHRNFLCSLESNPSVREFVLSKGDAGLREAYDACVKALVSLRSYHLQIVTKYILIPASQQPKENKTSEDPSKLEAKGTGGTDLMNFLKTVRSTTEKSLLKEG
Human whole blood was drawn in sodium heparin coated tubes from healthy internal donors. 240 μL of blood was transferred to each of the wells of a v-bottom 96 well plate. 30 μL of compound was transferred from intermediate dilution plate, and incubated for 15 min. 30 μL from stimulants was then transferred to blood and mixed thoroughly. Plate was covered with breathable membrane and incubated at 37° C. for overnight (18 h).
On day 2, isotope labeled standard solutions of kunurenine and tryptophan was made in water at 10× concentration and 30 μL was added to the blood at 3 μM final concentration. The assay plates were centrifuged at 300×G for 10 min with no brake to separate plasma from red blood cells. 60 μL of plasma samples was removed without disturbing red blood cells. Plasma was diluted with RPMI in 1:1 ratio and proteins were precipitated out with two volumes of Acetonitrile. The plates were centrifuged at 4000×G for 60 min. 20 μL of supernatant was carefully transferred to a 384 well plate containing 40 μL of 0.1% formic acid in water and analyzed by LC/MS/MS.
LC/MS/MS analyses were performed using Thermo Fisher's LX4-TSQ Quantum Ultra system. This system consists of four Agilent binary high-performance liquid chromatography (HPLC) pumps and a TSQ Quantum Ultra triple quadrupole MS/MS instrument. For each sample, 5 μL were injected onto an Atlantis T3 column (2.1 mm×150 mm, 3 μm particle size) from Waters. The mobile phase gradient pumped at 0.8 mL/min was used to elute the analytes from the column at 25° C. The elution started at 0% B increasing linearly to 25% B at 6.5 min, holding at 25% for 1 min, re-equilibrating to 10 min. Mobile phase A consisted of 0.1% formic acid in water. Mobile phase B consisted of 0.1% of formic acid in acetonitrile. Data were acquired in positive mode using a HESI interface. The operational parameters for the TSQ Quantum Ultra instrument were a spray voltage of 4000 V, capillary temperature of 380° C., vaporizer temperature 400° C., shealth gas 60 arbitrary units, Aux gas 20 arbitrary units, tube lens 85 and collision gas 1.2 mTorr. SRM chromatograms of kynurenine (Q1: 209.2>Q3:94.0) and internal standard (Q1: 215.3>Q3:98.2) were collected for 90 sec. The peak area was integrated by Xcalibur Quan software. The ratios between the kynurenine generated in the reaction and 2D6-Kynurenine spiked-in internal standard were used to generate percentage inhibition and IC50 values. Compounds were titrated and IC50's were calculated by 4 parameter sigmoidal curve fitting formula.
With `Cc1cc(F)ccc1OC1CCN(C(=O)Cn2nc(C(=O)N3CCC(F)(CO)CC3)c3c2CCC3)CC1` [Example 80, 2-[3-[4-fluoro-4-(hydroxymethyl)piperidine-1-carbonyl]-5,6-dihydro-4H-cyclopenta[c]pyrazol-1-yl]-1-[4-(4-fluoro-2-methyl-phenoxy)-1-piperidyl]ethanone], the IC50 amounted to 259 nM.
`C[C@@H]1CN(C(=O)c2nn(CC(=O)N3CCC(Oc4ccc(Cl)c5c4CCC5)CC3)c3c2CCC3)C[C@H](C)O1` [Example 129, 1-{4-[(7-chloro-2,3-dihydro-1H-inden-4-yl)oxy]piperidin-1-yl}-2-{3-[(2R,6S)-2,6-dimethylmorpholine-4-carbonyl]-5,6-dihydrocyclopenta[c]pyrazol-1(4H)-yl}ethan-1-one]: the IC50 was 3320 nM.
Turning to `Cc1ccccc1OC1CCN(C(=O)Cn2nc(C(=O)N3CCN(C(=O)CO)CC3)c3c2C[C@H]2C[C@@H]32)CC1` [Example 2, 2-Hydroxy-1-(4-((3bR,4aR)-1-(2-oxo-2-(4-(o-tolyloxy)piperidin-1-yl)ethyl)-3b,4,4a,5-tetrahydro-1H-cyclopropa[3,4]cyclopenta[1,2-c]pyrazole-3-carbonyl)piperazin-1-yl)ethanone], the IC50 is 13 nM.
As to `Cc1c(F)cccc1OC1CCN(C(=O)Cn2nc(C(=O)N3C[C@@H](C)O[C@@H](C)C3)c3c2CCC3)CC1` [Example 128, 2-{3-[(2R,6S)-2,6-dimethylmorpholine-4-carbonyl]-5,6-dihydrocyclopenta[c]pyrazol-1(4H)-yl}-1-[4-(3-fluoro-2-methylphenoxy)piperidin-1-yl]ethan-1-one], the IC50 came to 49.2 nM.
With `Cc1ccccc1OC1CCN(C(=O)Cn2nc(C(=O)N3CCC(OCCO)CC3)c3c2CCC3)CC1` [Example 19, 2-(3-(4-(2-hydroxyethoxy)piperidine-1-carbonyl)-5,6-dihydrocyclopenta[c]pyrazol-1(4H)-yl)-1-(4-(o-tolyloxy)piperidin-1-yl)ethanone], the IC50 was 27.3 nM.
The same measure, in the same setting: with `Cc1cc(F)ccc1OC1CCN(C(=O)Cn2nc(C(=O)N3CCN(C(=O)CO)CC3)c3c2CCCC3)CC1` [Example 79, 1-[4-(4-fluoro-2-methyl-phenoxy)-1-piperidyl]-2-[3-[4-(2-hydroxyacetyl)piperazine-1-carbonyl]-4,5,6,7-tetrahydroindazol-1-yl]ethanone] the figure was 140 nM.
On to `Cc1ccccc1OC1CCN(C(=O)Cn2nc(C(=O)N3CCN(C(=O)CO)CC3)c3c2CCCC3)CC1` [Example 38, 2-hydroxy-1-(4-(1-(2-oxo-2-(4-(o-tolyloxy)piperidin-1-yl)ethyl)-4,5,6,7-tetrahydro-1H-indazole-3-carbonyl)piperazin-1-yl)ethanone], for which the IC50 was 33 nM.
Consider `Cc1ccccc1OC1CCN(C(=O)Cn2nc(C(=O)N3CC[C@@H](O)[C@@H](F)C3)c3c2C[C@H]2C[C@@H]32)CC1` [Example 27, 2-((3bR,4aR)-3-((3S,4R)-3-fluoro-4-hydroxypiperidine-1-carbonyl)-3b,4,4a,5-tetrahydro-1H-cyclopropa[3,4]cyclopenta[1,2-c]pyrazol-1-yl)-1-(4-(o-tolyloxy)piperidin-1-yl)ethanone], for which the IC50 was found to be 26.3 nM.
Take `C[C@@H]1C[C@H](Oc2ncccc2C(F)(F)F)CCN1C(=O)Cn1nc(C(=O)N2CCC(OCCO)CC2)c2c1C[C@H]1C[C@@H]21` [Example 8, 2-((3bR,4aR)-3-(4-(2-hydroxyethoxy)piperidine-1-carbonyl)-3b,4,4a,5-tetrahydro-1H-cyclopropa[3,4]cyclopenta[1,2-c]pyrazol-1-yl)-1-((2R,4R)-2-methyl-4-((3-(trifluoromethyl)pyridin-2-yl)oxy)piperidin-1-yl)ethanone]: the IC50 is 212 nM.
With `C[C@@H]1CN(C(=O)c2nn(CC(=O)N3CCC(Oc4cccc(F)c4)CC3)c3c2CCC3)C[C@H](C)O1` [Example 99, 2-{3-[(2R,6S)-2,6-dimethylmorpholine-4-carbonyl]-5,6-dihydrocyclopenta[c]pyrazol-1(4H)-yl}-1-[4-(3-fluorophenoxy)piperidin-1-yl]ethan-1-one], the IC50 worked out at 575 nM.
Same read-out and setting: the figure for `Cc1cccc(F)c1OC1CCN(C(=O)Cn2nc(C(=O)N3C[C@@H](C)O[C@@H](C)C3)c3c2CCC3)CC1` [Example 138, 2-{3-[(2R,6S)-2,6-dimethylmorpholine-4-carbonyl]-5,6-dihydrocyclopenta[c]pyrazol-1(4H)-yl}-1-[4-(2-fluoro-6-methylphenoxy)piperidin-1-yl]ethan-1-one] is 241 nM; for `Cc1ccccc1OC1CCN(C(=O)Cn2nc(C(=O)N3CCC(O)CC3)c3c2C[C@H]2C[C@@H]32)CC1` [Example 21, 2-((3bR,4aR)-3-(4-hydroxypiperidine-1-carbonyl)-3b,4,4a,5-tetrahydro-1H-cyclopropa[3,4]cyclopenta[1,2-c]pyrazol-1-yl)-1-(4-(o-tolyloxy)piperidin-1-yl)ethanone] it is 40.2 nM.
On the same count and under the same terms, the figure for `Cc1ccccc1OC1CCN(C(=O)Cn2nc(C(=O)N3CC[C@@H](O)[C@@H](F)C3)c3c2CCC3)CC1` [Example 40, 2-(3-((3S,4R)-3-fluoro-4-hydroxypiperidine-1-carbonyl)-5,6-dihydrocyclopenta[c]pyrazol-1(4H)-yl)-1-(4-(o-tolyloxy)piperidin-1-yl)ethanone] is 107 nM.
Consider `Cc1ccccc1OC1CCN(C(=O)Cn2nc(C(=O)N3CC[C@H](O)[C@H](F)C3)c3c2C[C@H]2C[C@@H]32)CC1` [Example 16, 2-((3bR,4aR)-3-((3R,4S)-3-fluoro-4-hydroxypiperidine-1-carbonyl)-3b,4,4a,5-tetrahydro-1H-cyclopropa[3,4]cyclopenta[1,2-c]pyrazol-1-yl)-1-(4-(o-tolyloxy)piperidin-1-yl)ethanone], for which the half-maximal inhibitory concentration (IC50) was determined as 46.7 nM.
The same measure, in the same setting: with `Cc1ccccc1OC1CCN(C(=O)Cn2nc(C(=O)N3CCC(O)CC3)c3c2CCCC3)CC1` [Example 18, 2-(3-(4-hydroxypiperidine-1-carbonyl)-4,5,6,7-tetrahydro-1H-indazol-1-yl)-1-(4-(o-tolyloxy)piperidin-1-yl)ethanone] the figure was 64 nM.
Consider `Cc1ccccc1OC1CCN(C(=O)Cn2nc(C(=O)N3CC[C@H](O)C[C@@H]3C)c3c2CCCC3)CC1` [Example 17, 2-(3-((2S,4S)-4-hydroxy-2-methylpiperidine-1-carbonyl)-4,5,6,7-tetrahydro-1H-indazol-1-yl)-1-(4-(o-tolyloxy)piperidin-1-yl)ethanone], for which the IC50 worked out at 114 nM.
Regarding `Cc1ccccc1OC1CCN(C(=O)Cn2nc(C(=O)N3C[C@@H](C)O[C@@H](C)C3)c3c2CCC3)CC1` [Example 116, 2-{3-[(2R,6S)-2,6-dimethylmorpholine-4-carbonyl]-5,6-dihydrocyclopenta[c]pyrazol-1(4H)-yl}-1-[4-(2-methylphenoxy)piperidin-1-yl]ethan-1-one], the IC50 came to 46.8 nM.
Still for that read-out and setting: with `Cc1ccccc1OC1CCN(C(=O)Cn2nc(C(=O)N3CC[C@@H](O)[C@@H](F)C3)c3c2CCCC3)CC1` [Example 36, 2-(3-((3S,4R)-3-fluoro-4-hydroxypiperidine-1-carbonyl)-4,5,6,7-tetrahydro-1H-indazol-1-yl)-1-(4-(o-tolyloxy)piperidin-1-yl)ethanone] the figure was 108 nM; with `Cc1ccc(Cl)c(OC2CCN(C(=O)Cn3nc(C(=O)N4C[C@@H](C)O[C@@H](C)C4)c4c3CCC4)CC2)c1` [Example 93, 1-[4-(2-chloro-5-methylphenoxy)piperidin-1-yl]-2-{3-[(2R,6S)-2,6-dimethylmorpholine-4-carbonyl]-5,6-dihydrocyclopenta[c]pyrazol-1(4H)-yl}ethan-1-one], 265 nM.
On the same count and under the same terms, with `O=C(CO)N1CCN(C(=O)c2nn(CC(=O)N3CCC(Oc4ccccc4Cl)C4CC43)c3c2[C@@H]2C[C@@H]2C3)CC1` (single isomer, unassigned) [Example 170] the figure was 102 nM.

The same assay, now with this note: human whole blood, LPS and IFNγ 100 ng/mL, 18 h, kynurenine by LC/MS/MS; read-out: IDO1 human whole blood assay, IC50.
`CCOC(=O)c1nn(CC(=O)N2CC[C@@H](Oc3ccccc3Cl)C[C@H]2C)c2c1CCCC2` [Example 11, ethyl 1-(2-((2R,4R)-4-(2-chlorophenoxy)-2-methylpiperidin-1-yl)-2-oxoethyl)-4,5,6,7-tetrahydro-1H-indazole-3-carboxylate]: the IC50 came to 378 nM.
